row,melting point,Compound
1,197 °C,O=c1c2ccccc2oc2cc(OCC3CO3)cc(O)c12 (stereo unspecified)
2,146 to 150 °C,O=C(O)c1cc(F)c(N(CCO)CCO)c(F)c1
3,163 to 165 °C,O=C(O)Cc1ccc2c(c1)CC(=O)c1ccccc1C2
4,117 to 118 °C,COC1C(N2CCCC2=O)c2sccc2OC1(C)C (stereo unspecified)
5,142 to 144 °C,O=S(=O)(Nc1ccc2c(OCc3ccc(Cl)cc3Cl)cccc2c1)C(F)(F)F
6,138 to 139 °C,O=c1ccn(-c2ccccc2Cl)nc1-c1ccnn1-c1ccccc1
7,148 °C,O=C(O)Cc1cccc(C(=O)c2ccc(Cl)cc2)c1
8,171 to 172 °C,Cc1c(-c2ccccn2)[nH]c2ncnc(Nc3cccc(Cl)c3)c12
9,149 °C,CSc1nc(C)cc(O)n1
10,217 to 219 °C,Cc1ccc2ccc(C(=O)O)c(O)c2n1
11,136 to 139 °C,CCCc1nc2c(N)nc3cc(OCCCCCCNC(=O)OC(C)(C)C)ccc3c2s1
12,54 to 56 °C,CCCCOc1ccc(/C=C/c2cc(OC)cc(OC)c2)cc1
13,174 to 175 °C,CC(C(O)CCC1CC1)C1CCC2C3CC=C4CC(O)CCC4(C)C3CCC12C (stereo unspecified)
14,205 to 206 °C,Cc1nc2sc3c(NCCCN4CCCC4=O)ncnc3c2c2c1CCC(C)(C)C2
15,113 to 114 °C,CC(C#CCCc1ccccc1)N(O)C(N)=O (stereo unspecified)
16,142 °C,Cc1cc(C)nc(NC(=O)c2ccncc2)c1
17,138 to 142 °C,O=C(NCCCCCCOC(=O)N1CCC(OC(=O)NC2CCCCC2)CC1)Oc1ccc(Oc2ccccc2)cc1
18,< 50 °C,C#Cc1ccc(Br)c(C(F)(F)F)c1
19,103 °C,Cc1oc2ccccc2c1C(=O)c1ccc(Cl)c(N)c1
20,101 to 102 °C,CCOC(=O)c1ccc(NC2(C#N)CCCCC2)cc1
21,51 °C,CC1(C)CCSc2ccc(-c3cc(-c4ccc(C(=O)O)cc4)ccc3-c3ccccc3)cc21
22,174 °C,O=C1NC(=S)SC1=Cc1ccc(C(F)(F)F)o1
23,212 °C,CC(C)(C)c1ccc(-c2nc3ccc(C(=O)O)cc3[nH]2)cc1
24,216 to 218 °C,Cc1cccc2c(Cc3nc4c(F)c(F)cc(F)c4s3)cn(CC(=O)O)c12

row,melting point,Compound
1,141 to 144 °C,COC1=NS(=O)(=O)N(Cc2ccccc2)C(N)=N1
2,125 to 126 °C,O=C1c2ccccc2C(=O)N1CCN1CCN(C(c2ccc(F)cc2)c2ccc(F)cc2)CC1
3,260 °C,CCOC(=O)c1nccc2c(C)c3c(cc12)c1cc(O)ccc1n3CC
4,154 to 156 °C,Cc1cc(C(F)(C(F)(F)F)C(F)(F)F)ccc1N1C(=O)c2cccc(Cl)c2C1NC(C)(C)CS(C)(=O)=O (stereo unspecified)
5,65 to 67 °C,CCOC(=O)C(=NOC)C1=CSCCS1
6,108 to 109 °C,CC[C@@H](c1ccccc1)N(Cc1ccc(C(=O)O)cc1)S(=O)(=O)c1ccc(F)c(F)c1
7,145 to 148 °C,CCOC(=O)c1cnc2ccc(CC)nc2c1Nc1ccc(OC)cc1
8,119 to 122 °C,CN1C(=O)CCC(C)(C)c2cc(N)ccc21
9,156 to 157 °C,CCOc1cc(C(CC#N)N2C(=O)c3cccc([N+](=O)[O-])c3C2=O)ccc1OC (stereo unspecified)
10,185 to 186 °C,Nc1ccc2c(c1)Sc1ccc(N)cc1S2
11,208 to 209 °C,COC(=O)c1cc(N2CCCC2)c(Oc2cc(C)cc(C)c2)c(S(N)(=O)=O)c1
12,162 to 163 °C,CCCCc1nc(Cl)c(CO)n1Cc1ccc(-c2cccc(C(=O)OC)c2)cc1
13,131 to 132 °C,C=C1C(=O)c2ccccc2OC1c1cccc([N+](=O)[O-])c1 (stereo unspecified)
14,196 to 198 °C,COC(=O)C1=C(C#N)NC(C)=C(C(=O)OCC(C)C)C1c1ccccc1C#N (stereo unspecified)
15,201 to 203 °C,CNC(=O)c1ccc(C)c(-n2c(C)cc(OCc3ccccc3CNC(=O)Nc3cc(C(C)(C)C)nn3-c3ccc(Cl)c(O)c3)c(Cl)c2=O)c1
16,192 to 193 °C,Fc1ccc(-c2ncn(C3CCNCC3)c2-c2ccnc(Oc3ccc(-c4ccccc4)cc3)n2)cc1
17,186 to 187 °C,CNc1nc(Cl)cc(NS(=O)(=O)c2ccccc2)n1
18,212 to 214 °C,CC(=S)Nc1ccc(-c2nc3ccccc3o2)cc1
19,134 to 137 °C,CS(=O)(=O)N1CCC(CCC(=O)c2ccc3c(c2)CCN(Cc2ccccc2)CC3)CC1
20,259 to 263 °C,CCCn1cc2c(C3C(=O)Nc4ccc(S(=O)(=O)N(C)C)cc43)nc(NCCN(C)C)nc2n1 (stereo unspecified)
21,86 to 88 °C,CCCCCCCCCCCCCCCCCCOc1cc(OCCCOc2ccc(S(C)=O)cc2)cc(C(=O)OC)c1 (stereo unspecified)
22,105 to 107 °C,CCCCC1(CCCC)CS(=O)(=O)c2ccc(N(C)C)cc2C(c2ccc(OCc3cccnc3CCC(=O)O)cc2)C1O (stereo unspecified)
23,76.5 to 78 °C,COC(CNC(=O)c1cccc(C(=O)NCC(OC)OC)c1)OC
24,115 to 117 °C,CC1(C)CCC(C)(C)c2cc(C#Cc3ccc(CO)cc3)ccc21

row,melting point,Compound
1,60 to 62 °C,CC(C)=CCN1Cc2c(Cl)ccc([N+](=O)[O-])c2NC[C@@H]1C
2,52 to 55 °C,CCOC(=O)C1OC1C(=O)N(C)C1CCCCC1 (stereo unspecified)
3,213 to 217 °C,CN(C)CCOc1ccc2c(c1)[nH]c(=O)c1c3ccccc3oc21
4,233 to 235 °C,Cc1n[nH]c(COc2nn3c(-c4ccccc4)nnc3cc2-c2ccccc2)n1
5,104 to 106 °C,Cc1cc(Oc2ccc(C(F)(F)F)cc2[N+](=O)[O-])nn1C(=O)NC(C)(C)C
6,152 to 153 °C,CNc1nc(C)c(-c2cccnc2)s1
7,75 to 80 °C,CC(C)(C)c1ccc(S(=O)(=O)N2c3ccccc3C[C@H]2C(=O)NCc2ccc([N+](=O)[O-])cc2)cc1
8,160 to 162 °C,CC(C)(C)N(NC(=S)c1ccc(Cl)cc1)C(=O)c1ccccc1
9,216 to 218 °C,CN(C)c1ccc(NC(=O)CCn2c(-c3ccc(Cl)cc3)nc3cccnc32)cc1
10,285 to 287 °C,C[C@@H]1CN(c2ccc3nc(-c4ccc(F)cc4)c(-c4ccnc5[nH]ccc45)n3n2)CCN1
11,95 to 98 °C,CCCCCS(=O)(=O)NC(=O)/C=C/c1cc(OCCCC)nn1Cc1ccc(Cl)cc1Cl
12,199 to 200 °C,c1cncc(-c2ccc3nncn3n2)c1
13,208 to 210 °C,CCc1cc(Br)cc2nc3c(=O)[nH][nH]c(=O)c3c(O)c12
14,141 to 142 °C,COCOCC(=O)c1cnc(NC(=O)C(C)(C)C)cn1
15,193 to 194 °C,CC(Cl)CNc1cccc(C(N)=O)c1 (stereo unspecified)
16,71 to 72 °C,C[C@@H](CO)Oc1ccc2cc(Br)ccc2c1
17,71 to 72 °C,CCOC(=O)Cc1c(C)nn(-c2ccc(OC)cc2)c1C
18,87 °C,CCCCC(CC)C(c1ccc(O)cc1)c1ccc(O)cc1 (stereo unspecified)
19,238 to 239 °C,O=S(=O)(c1ccccc1)c1c[nH]c2ccc(N3CCN(Cc4ccccc4)CC3)nc12
20,89 to 91 °C,O=C(Cl)c1cc(C(=O)Cl)[nH]n1
21,234 to 236 °C,COc1ccc2[nH]c(-c3n[nH]c4ccsc34)cc2n1
22,128 to 129 °C,NC(c1ccnc(F)c1)C(O)c1cccc(C(F)(F)F)c1 (stereo unspecified)
23,116 to 118 °C,COC(=O)CC/C(C)=C/Cc1c(NC(=O)N(C)C)c2c(c(C)c1OC)COC2=O
24,164 to 165 °C,COc1ccc(-c2csc(N(C(C)=O)c3cc4ccccc4cn3)n2)cc1OC

row,melting point,Compound
1,168 to 170 °C,COc1ccc(C(=O)NCCCCCCCCCCNC(=O)c2ccc(OC)cc2)cc1
2,173 °C,CC(C)(C)c1cc(C(C(=O)O)c2ccc(O)c(C(C)(C)C)c2)ccc1O
3,> 300 °C,Cc1c(-c2cncn2C)[nH]c(=O)c2c1ccc1nc(Nc3c(Cl)cccc3Cl)n(C)c12
4,130 to 132 °C,c1cc2c(cc1CSc1nnc(-c3ccc4c(c3)CCO4)o1)CCO2
5,> 230 °C,CN1C(=O)C(=Cc2ccc(O)c(C(C)(C)C)c2)SC1=S
6,66 to 67 °C,CCCCCCCCCCCCCCCCc1nc(N(C)C)nc(OC)c1Br
7,135 to 136 °C,CC(C)N(O)C(=O)Nc1cccc(S(C)=O)c1 (stereo unspecified)
8,95 to 96 °C,CCOC(=O)/C=C/c1nc(COc2ccc(COc3nn(-c4ccccc4)cc3/C=C\c3csc(CC)n3)cc2OC)c(C)o1
9,175 to 178 °C,COc1ccc(C(=O)Nc2ccc(F)cc2)cc1NC(=S)Nc1cc(Cl)cc(Cl)c1
10,78 to 80 °C,Cc1ccc(S(=O)(=O)OCCCCCCCCCOc2cccc(C(N)=O)c2)cc1
11,128 to 129 °C,Nc1cc(NS(=O)(=O)CCl)ccc1F
12,117 to 120 °C,CN(C)CCCc1ccc(S(=O)(=O)N2CCC(Nc3nc(N)c(C(=O)c4c(F)cccc4F)s3)CC2)cc1
13,89 to 90 °C,Cc1oc(-c2ccccc2)nc1CCc1nc(CCl)cs1
14,106 to 108 °C,CN1CCN(C2Cc3ccccc3Sc3cc(F)c(F)cc32)CC1 (stereo unspecified)
15,262 to 264 °C,Cc1nn(C)c2c1c1oc(=O)c(Br)c(O)c1c(=O)n2Cc1ccc(F)cc1
16,186 to 188 °C,O=C1CCCN1[C@@H]1c2cc(Cl)ccc2OCC[C@H]1O (relative stereo)
17,83.5 to 86 °C,CCN(CC)CCNc1cc(Sc2ccc(Cl)cc2)nc(-c2ccccc2)n1
18,58 to 59 °C,O=C(O)C(=O)c1ccc(OCCOCCOc2ccccc2)cc1
19,222 to 224 °C,CCCC(=O)Nc1cccc(C(c2c(O)c3c(oc2=O)CCCCCC3)C2CC2)c1 (stereo unspecified)
20,138 °C,CC1CCN(C(=O)c2nc(-c3ccccc3)nc3ccccc23)CC1
21,92 °C,CCn1cc(-c2cccc(C(F)(F)F)c2)c(=O)n1-c1ccc(F)cc1
22,> 200 °C,Cc1nc(N2CCN(Cc3ccc(Cl)cc3)C2=O)sc1C(N)=O
23,152 to 153 °C,CC(C)Cc1cc(OCc2ccccc2)c2c(c1)OC(C)(C)CC2C(=O)O (stereo unspecified)

row,Compound,melting point
1,CCCCCCN=C=O,68 to 72 °C
2,COc1cccc(N2CCN(CCCO)CC2)c1,87 to 89 °C
3,Cc1ccc2c(c1)[C@@H]1CN(C)CC[C@@H]1CC2=O (relative stereo),> 250 °C
4,CC12CCC(=O)C=C1CCC1C2=CCC2(C)C1CCC2(O)C(=O)CCl (stereo unspecified),227 to 228 °C
5,CC(=O)C1CCC2C3CCC4CC(O)C(O)CC4(C)C3C(=O)CC12C (stereo unspecified),194 to 198 °C
6,Cc1cc(OC(=O)N[C@@H](CCC(=O)O)C(=O)O)ccc1N(CCCl)CCCl,160 to 162 °C
